Measurements as given in patent US4593093A, “Acyl derivatives” (priority 1980, dated 1986).
Counter-ions that a name gives are not always drawn. Like-named read-outs stand apart in the source and are kept apart here.

Tests used:
Proteus inconstans = test: Activity in vitro: minimum inhibitory concentration; assay type: cell-based; conditions: Providencia alcalifaciens
Proteus mirabilis = test: as above; assay type: cell-based
Streptococcus pneumoniae = test: as above; assay type: cell-based
Streptococcus faecalis = test: as above; assay type: cell-based; conditions: Enterococcus faecalis
Streptococcus pyogenes [1] = test: Activity in vivo: survival of intraperitoneally infected mice; conditions: sc, 96 h; mice infected i.p. with Streptococcus pyogenes; s.c. twice, 1 h and 3 h after infection; survival on 4th day; read-out: CD50 (dosage at which 50% of the animals survive)
Protocol: (§1) Groups of 5 mice are infected intraperitoneally with an aqueous suspension of various pathogens. The test substance in physiological sodium chloride solution is administered subcutaneously twice, i.e. 1 hour and 3 hours after the infection. The number of surviving animals is determined on the 4th day. Various dosages are administered and that dosage at which 50% of the experimental animals survive (CD50, mg/kg) is determined by interpolation.

Escherichia coli [2] = test: as above; conditions: sc, 96 h; mice infected i.p. with Escherichia coli; s.c. twice, 1 h and 3 h after infection; survival on 4th day; read-out: CD50 (dosage at which 50% of the animals survive)
Protocol: as §1

Enterobacter cloacae [3] = test: as above; conditions: sc, 96 h; mice infected i.p. with Enterobacter cloacae; s.c. twice, 1 h and 3 h after infection; survival on 4th day; read-out: CD50 (dosage at which 50% of the animals survive)
Protocol: as §1

Serratia marcescens [4] = test: as above; conditions: sc, 96 h, mice infected i.p. with Serratia marcescens strain 1, s.c. twice, 1 h and 3 h after infection, survival on 4th day, read-out: CD50 (dosage at which 50% of the animals survive)
Protocol: as §1

Haemophilus influenzae = test: as above; conditions: sc, 96 h; mice infected i.p. with Haemophilus influenzae; s.c. twice, 1 h and 3 h after infection; survival on 4th day; read-out: CD50 (dosage at which 50% of the animals survive)
Protocol: as §1

Staphylococcus epidermis = test: Activity in vitro: minimum inhibitory concentration; assay type: cell-based
Klebsiella pseumoniae = test: as above; assay type: cell-based
Pseudomonas aeruginosa [5] = test: Activity in vivo: survival of intraperitoneally infected mice; conditions: sc, 96 h; mice infected i.p. with Pseudomonas aeruginosa; s.c. three times, 1 h, 3 h and 5 h after infection; survival on 4th day; read-out: CD50 (dosage at which 50% of the animals survive)
Protocol: as §1
*Administered subcutaneously three times: 1 hour, 3 hours and 5 hours

Pseudomonas aeruginosa [6] = test: Activity in vitro: minimum inhibitory concentration; assay type: cell-based
Toxicity, LD50 = conditions: in vivo
Proteus rettgeri = test: Activity in vitro: minimum inhibitory concentration; assay type: cell-based; conditions: Providencia rettgeri
Enterobacter aerogenes = test: as above; assay type: cell-based; conditions: Klebsiella aerogenes
Escherichia coli [7] = test: as above; assay type: cell-based
Streptococcus pyogenes [8] = test: as above; assay type: cell-based
Serratia marcescens [9] = test: as above; assay type: cell-based
Staphylococcus aureus = test: as above; assay type: cell-based
Proteus vulgaris = test: as above; assay type: cell-based
Enterobacter cloacae [10] = test: as above; assay type: cell-based
Proteus morganii = test: as above; assay type: cell-based; conditions: Morganella morganii
Citrobacter freundii = test: as above; assay type: cell-based
Streptococcus viridans = test: as above; assay type: cell-based
[11] = Streptococcus faecalis strain 1
[12] = Streptococcus faecalis strain 2
[13] = Pseudomonas aeruginosa strain 1
[14] = Pseudomonas aeruginosa strain 2
[15] = Pseudomonas aeruginosa strain 3
[16] = Enterobacter aerogenes strain 1
[17] = Enterobacter aerogenes strain 2
[18] = Streptococcus pyogenes strain 1, read-out: Minimum inhibitory concentration
[19] = Streptococcus pyogenes strain 2, read-out: Minimum inhibitory concentration

For `CO/N=C(\C(=O)N[C@@H]1C(=O)N2C(C(=O)[O-])=C(CSc3nnnn3C)CS[C@H]12)c1c[se]c(N)n1.[Na+]` [Product A, (6R, 7R)-7-[2-(2-amino-4-selenazolyl)-2-[(Z)-methoxyimino]-acetamido]-3-[[(1-methyl-1H-tetrazol-5-yl)-thio]methyl]-8-oxo-5-thia-1-azabicyclo[4.2.0]oct-2-ene-2-carboxylic acid sodium salt], the MIC (Proteus inconstans) was 0.025 µg/mL, the MIC (Proteus mirabilis; Proteus mirabilis strain 1) was 0.1 µg/mL and the MIC (Proteus mirabilis; Proteus mirabilis strain 2) was 0.1 µg/mL. The MIC (Proteus mirabilis; Proteus mirabilis strain 3) was 0.8 µg/mL, the MIC (Proteus mirabilis; Proteus mirabilis strain 4) was 0.05 µg/mL and the MIC (Proteus mirabilis; Proteus mirabilis strain 5) was 0.05 µg/mL. It also gave an MIC (Streptococcus pneumoniae) of 0.025 µg/mL, an MIC (Streptococcus faecalis; [11]) of 100 µg/mL and an MIC (Streptococcus faecalis; [12]) greater than 100 µg/mL. For the same compound, the ED50 (Streptococcus pyogenes [1]) was 0.05 mg/kg, the ED50 (Escherichia coli [2]) was 0.006 mg/kg and the ED50 (Enterobacter cloacae [3]) was 8.4 mg/kg. For the same compound, the ED50 (Serratia marcescens [4]) was 0.13 mg/kg, the ED50 (Haemophilus influenzae) was 1.5 mg/kg and the MIC (Staphylococcus epidermis) was 0.8 µg/mL. It also gave an MIC (Klebsiella pseumoniae; Klebsiella pseumoniae strain 1) of 0.2 µg/mL, an MIC (Klebsiella pseumoniae; Klebsiella pseumoniae strain 2) of 0.05 µg/mL and an MIC (Klebsiella pseumoniae; Klebsiella pseumoniae strain 3) of 0.1 µg/mL. For the same compound, the ED50 (Pseudomonas aeruginosa [5]) was 39 mg/kg, the MIC (Pseudomonas aeruginosa [6]; [13]) was 25 µg/mL and the MIC (Pseudomonas aeruginosa [6]; [14]) was 25 µg/mL. For the same compound, the MIC (Pseudomonas aeruginosa [6]; [15]) was 6.3 µg/mL, the LD50 (Toxicity, LD50; po) was greater than 5000 mg/kg and the LD50 (Toxicity, LD50; sc) was greater than 4000 mg/kg. For the same compound, the MIC (Proteus rettgeri) was 0.2 µg/mL, the MIC (Enterobacter aerogenes; [16]) was 0.1 µg/mL and the MIC (Enterobacter aerogenes; [17]) was 0.1 µg/mL. It also gave an MIC (Escherichia coli [7]; Escherichia coli strain 1) of 0.1 µg/mL, an MIC (Escherichia coli [7]; Escherichia coli strain 2) of 0.025 µg/mL and an MIC (Escherichia coli [7]; Escherichia coli strain 3) of 0.4 µg/mL. It also gave an MIC (Escherichia coli [7]; Escherichia coli strain 4) of 0.2 µg/mL, an MIC (Escherichia coli [7]; Escherichia coli strain 5) of 0.4 µg/mL and an MIC (Streptococcus pyogenes [8]; [18]) of 0.025 µg/mL. For the same compound, the MIC (Streptococcus pyogenes [8]; [19]) was no more than 0.012 µg/mL, the MIC (Serratia marcescens [9]; Serratia marcescens strain 1) was 0.4 µg/mL and the MIC (Serratia marcescens [9]; Serratia marcescens strain 2) was 0.8 µg/mL. For the same compound, the MIC (Serratia marcescens [9]; Serratia marcescens strain 3) was 0.1 µg/mL, the MIC (Staphylococcus aureus; Staphylococcus aureus strain 1) was 0.8 µg/mL and the MIC (Staphylococcus aureus; Staphylococcus aureus strain 2) was 1.6 µg/mL. For the same compound, the MIC (Staphylococcus aureus; Staphylococcus aureus strain 3) was 0.8 µg/mL, the MIC (Staphylococcus aureus; Staphylococcus aureus strain 4) was 0.8 µg/mL and the MIC (Proteus vulgaris) was 0.78 µg/mL. For the same compound, the MIC (Enterobacter cloacae [10]; Enterobacter cloacae strain 1) was greater than 100 µg/mL, the MIC (Enterobacter cloacae [10]; Enterobacter cloacae strain 2) was 0.8 µg/mL and the MIC (Enterobacter cloacae [10]; Enterobacter cloacae strain 3) was 50 µg/mL. For the same compound, the MIC (Proteus morganii) was 0.1 µg/mL, the MIC (Citrobacter freundii; Citrobacter freundii strain 1) was 1.6 µg/mL and the MIC (Citrobacter freundii; Citrobacter freundii strain 2) was 0.05 µg/mL. For the same compound, the MIC (Streptococcus viridans) was 0.8 µg/mL.
Work on `CO/N=C(\C(=O)N[C@@H]1C(=O)N2C(C(=O)O)=C(CSc3nnc(C)s3)CS[C@H]12)c1c[se]c(N)n1` [Product B, (6R, 7R)-7-[2-)2-amino-4-selenazolyl)-2-[(Z)-methoxyimino]-acetamido]-3-[[(5-methyl-1,3,4-thiadiazol-2-yl)thio]methyl]-8-oxo-5-thia-1-azabicyclo[4.2.0]oct-2-ene-2-carboxylic acid sodium salt] yielded an MIC (Proteus inconstans) of 0.025 µg/mL, an MIC (Proteus mirabilis; Proteus mirabilis strain 1) of 0.19 µg/mL and an MIC (Proteus mirabilis; Proteus mirabilis strain 2) of 0.19 µg/mL. The MIC (Proteus mirabilis; Proteus mirabilis strain 3) was 0.2 µg/mL, the MIC (Proteus mirabilis; Proteus mirabilis strain 4) was 0.4 µg/mL and the MIC (Proteus mirabilis; Proteus mirabilis strain 5) was 0.4 µg/mL. For the same compound, the MIC (Streptococcus pneumoniae) was 0.025 µg/mL, the MIC (Streptococcus faecalis; [11]) was 100 µg/mL and the MIC (Streptococcus faecalis; [12]) was 100 µg/mL. The ED50 (Streptococcus pyogenes [1]) was 0.05 mg/kg, the ED50 (Escherichia coli [2]) was 0.006 mg/kg and the ED50 (Enterobacter cloacae [3]) was greater than 12 mg/kg. The ED50 (Serratia marcescens [4]) was 0.52 mg/kg, the ED50 (Haemophilus influenzae) was 0.27 mg/kg and the MIC (Staphylococcus epidermis) was 0.8 µg/mL. The MIC (Klebsiella pseumoniae; Klebsiella pseumoniae strain 1) was 0.4 µg/mL, the MIC (Klebsiella pseumoniae; Klebsiella pseumoniae strain 2) was 0.1 µg/mL and the MIC (Klebsiella pseumoniae; Klebsiella pseumoniae strain 3) was 0.2 µg/mL. For the same compound, the ED50 (Pseudomonas aeruginosa [5]) was 134 mg/kg, the MIC (Pseudomonas aeruginosa [6]; [13]) was 50 µg/mL and the MIC (Pseudomonas aeruginosa [6]; [14]) was 25 µg/mL. It also gave an MIC (Pseudomonas aeruginosa [6]; [15]) of 6.3 µg/mL, an LD50 (Toxicity, LD50; po) greater than 5000 mg/kg and an LD50 (Toxicity, LD50; sc) greater than 4000 mg/kg. For the same compound, the MIC (Proteus rettgeri) was 0.2 µg/mL, the MIC (Enterobacter aerogenes; [16]) was 0.1 µg/mL and the MIC (Enterobacter aerogenes; [17]) was 0.1 µg/mL. It also gave an MIC (Escherichia coli [7]; Escherichia coli strain 1) of 0.2 µg/mL, an MIC (Escherichia coli [7]; Escherichia coli strain 2) of 0.006 µg/mL and an MIC (Escherichia coli [7]; Escherichia coli strain 3) of 0.8 µg/mL. It also gave an MIC (Escherichia coli [7]; Escherichia coli strain 4) of 0.2 µg/mL, an MIC (Escherichia coli [7]; Escherichia coli strain 5) of 0.4 µg/mL and an MIC (Streptococcus pyogenes [8]; [18]) of 0.025 µg/mL. The MIC (Streptococcus pyogenes [8]; [19]) was no more than 0.012 µg/mL, the MIC (Serratia marcescens [9]; Serratia marcescens strain 1) was 0.8 µg/mL and the MIC (Serratia marcescens [9]; Serratia marcescens strain 2) was 1.6 µg/mL. The MIC (Serratia marcescens [9]; Serratia marcescens strain 3) was 0.2 µg/mL, the MIC (Staphylococcus aureus; Staphylococcus aureus strain 1) was 0.8 µg/mL and the MIC (Staphylococcus aureus; Staphylococcus aureus strain 2) was 1.6 µg/mL. The MIC (Staphylococcus aureus; Staphylococcus aureus strain 3) was 0.8 µg/mL, the MIC (Staphylococcus aureus; Staphylococcus aureus strain 4) was 1.6 µg/mL and the MIC (Proteus vulgaris) was 0.78 µg/mL. It also gave an MIC (Enterobacter cloacae [10]; Enterobacter cloacae strain 1) greater than 100 µg/mL, an MIC (Enterobacter cloacae [10]; Enterobacter cloacae strain 2) of 1.6 µg/mL and an MIC (Enterobacter cloacae [10]; Enterobacter cloacae strain 3) of 50 µg/mL. For the same compound, the MIC (Proteus morganii) was 0.05 µg/mL, the MIC (Citrobacter freundii; Citrobacter freundii strain 1) was 1.6 µg/mL and the MIC (Citrobacter freundii; Citrobacter freundii strain 2) was 0.2 µg/mL. The MIC (Streptococcus viridans) was 0.8 µg/mL.
